Data: ChEMBL document CHEMBL1944569, “QSAR study and synthesis of new phenyltropanes as ligands of the dopamine transporter (DAT)” (Bioorg Med Chem, 2012)

Biological target: T1, Sodium-dependent dopamine transporter (Homo sapiens, UniProt Q01959)
Experiment: Displacement of [3H]WIN35428 from human cloned DAT receptor expressed in human HEK293 cells
Format: cell-based
Conditions: read-out: Ki

T1 sequence (Q01959 whole entry): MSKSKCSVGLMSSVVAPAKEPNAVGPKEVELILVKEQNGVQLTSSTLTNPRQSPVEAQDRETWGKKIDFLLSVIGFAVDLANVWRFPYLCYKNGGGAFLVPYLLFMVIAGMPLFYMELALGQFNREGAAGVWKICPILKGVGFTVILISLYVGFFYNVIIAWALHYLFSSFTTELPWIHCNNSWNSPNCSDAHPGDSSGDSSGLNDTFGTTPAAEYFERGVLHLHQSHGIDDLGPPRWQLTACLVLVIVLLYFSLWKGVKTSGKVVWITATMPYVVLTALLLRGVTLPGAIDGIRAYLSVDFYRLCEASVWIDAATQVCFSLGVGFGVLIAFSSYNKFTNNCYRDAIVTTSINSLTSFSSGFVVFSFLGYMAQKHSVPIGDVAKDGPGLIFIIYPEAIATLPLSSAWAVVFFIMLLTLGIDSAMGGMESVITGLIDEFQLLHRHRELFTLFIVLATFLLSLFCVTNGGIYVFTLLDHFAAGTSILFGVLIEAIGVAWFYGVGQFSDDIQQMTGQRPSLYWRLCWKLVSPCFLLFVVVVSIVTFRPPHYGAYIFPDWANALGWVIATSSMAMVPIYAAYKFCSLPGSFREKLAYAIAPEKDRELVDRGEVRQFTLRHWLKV

Row | SMILES | Ki
1 | COC(=O)[C@H]1[C@@H](c2ccc(C)cc2)C[C@@H]2CC[C@H]1N2C/C=C(\I)C(F)(F)F | 116 nM
2 | COC(=O)[C@H]1[C@@H](c2ccc(C)cc2)C[C@@H]2CC[C@H]1N2C/C(I)=C/C(F)(F)F | 0.87 nM
3 | COC(=O)[C@H]1[C@@H](c2ccc(C)cc2)C[C@@H]2CC[C@H]1N2C/C=C/I | 17 nM

Same assay, conditions: read-out: pKi (converted)

Row | SMILES | Ki
4 | CN1[C@H]2CC[C@@H]1[C@@H](C(=O)OCCc1ccccc1)[C@@H](c1ccc(Cl)c(Cl)c1)C2 | 11 nM
5 | CCc1ccc([C@H]2C[C@@H]3CC[C@H]([C@H]2C(=O)OC)N3C)cc1I | 339 nM
6 | C[C@@H](CF)OC(=O)[C@H]1[C@@H](c2ccc(Cl)cc2)C[C@@H]2CC[C@H]1N2C | 0.676 nM
7 | C[C@H](CF)OC(=O)[C@H]1[C@@H](c2ccc(Cl)cc2)C[C@@H]2CC[C@H]1N2C | 3.24 nM
8 | C/C=C/CN1[C@H]2CC[C@@H]1[C@@H](C(=O)OC)[C@@H](c1ccc(I)cc1)C2 | 15.1 nM
9 | COC(=O)[C@H]1[C@@H](c2ccc(F)cc2)C[C@@H]2CC[C@H]1N2CCCF | 47.9 nM
10 | CCCc1ccc([C@H]2C[C@@H]3CC[C@H]([C@H]2C(=O)OC)N3C)cc1 | 501 nM
11 | CN1[C@H]2CC[C@@H]1[C@@H](C(=O)OCc1ccccc1)[C@@H](c1ccc(Cl)c(Cl)c1)C2 | 34.7 nM
12 | COC(=O)[C@H]1[C@@H](c2ccc(F)cc2)C[C@@H]2CC[C@H]1N2CCF | 70.8 nM
13 | COC(=O)[C@H]1[C@@H](c2ccc(Cl)c(Cl)c2)C[C@@H]2CC[C@H]1N2C | 6.31 nM
14 | COC(=O)[C@H]1[C@@H](c2ccc(F)cc2)C[C@@H]2CC[C@H]1N2C/C=C/CF | 9.55 nM
15 | COC(=O)[C@H]1[C@@H](c2ccc(C)c(I)c2)C[C@@H]2CC[C@H]1N2 | 112 nM
16 | COC(=O)[C@H]1[C@@H](c2ccc(C(C)C)cc2)C[C@@H]2CC[C@H]1N2C/C=C/I | 372 nM
17 | O=C(OCCF)[C@H]1[C@@H](c2cccc(/C=C/I)c2)C[C@@H]2CC[C@H]1N2 | 275 nM
18 | C=C(Br)CN1[C@H]2CC[C@@H]1[C@@H](C(=O)OC)[C@@H](c1ccc(I)cc1)C2 | 30.2 nM
19 | CCCCc1ccc([C@H]2C[C@@H]3CC[C@H]([C@H]2C(=O)OC)N3C)cc1I | 372 nM
20 | COC(=O)[C@H]1[C@@H](c2ccc(Cl)c(Cl)c2)C[C@@H]2CC[C@H]1N2C/C=C/I | 28.8 nM
21 | O=C(OCCF)[C@H]1[C@@H](c2cccc(/C=C\I)c2)C[C@@H]2CC[C@H]1N2 | 89.1 nM
22 | CC(C)OC(=O)[C@H]1[C@@H](c2ccc(Cl)c(Cl)c2)C[C@@H]2CC[C@H]1N2C | 18.2 nM
23 | COC(=O)[C@H]1[C@@H](c2ccc(I)cc2)C[C@@H]2CC[C@H]1N2C/C=C/I | 30.2 nM
24 | CCCCc1ccc([C@H]2C[C@@H]3CC[C@@H](N3)[C@H]2C(=O)OC)cc1I | 372 nM
25 | CCCCc1ccc([C@H]2C[C@@H]3CC[C@H]([C@H]2C(=O)OC)N3C)cc1 | 501 nM
26 | Cc1ccc([C@H]2C[C@@H]3CC[C@H]([C@H]2C(=O)OCCF)N3C/C=C/I)cc1 | 12 nM

Row | SMILES | Ki
27 | COC(=O)[C@H]1[C@@H](c2ccc(I)cc2)C[C@@H]2CC[C@H]1N2C/C=C/CF | 0.501 nM
28 | COC(=O)[C@H]1[C@@H](c2ccc(I)cc2)C[C@@H]2CC[C@H]1N2C | 35.5 nM
29 | COC(=O)[C@H]1[C@@H](c2ccc(I)cc2)C[C@@H]2CC[C@H]1N2CCCF [IOFLUPANE] | 28.2 nM
30 | COC(=O)[C@H]1[C@@H](c2ccc(C(C)C)c(I)c2)C[C@@H]2CC[C@H]1N2 | 501 nM
31 | CN1[C@@H]2CC[C@H]1[C@H](C(=O)OCc1ccccc1)[C@@H](OC(c1ccc(F)cc1)c1ccc(F)cc1)C2 | 49 nM
32 | COC(=O)[C@H]1[C@@H](c2ccccc2)C[C@@H]2CC[C@H]1N2C [TROPARIL] | 33.1 nM
33 | CCCc1ccc([C@H]2C[C@@H]3CC[C@H]([C@H]2C(=O)OC)N3C/C=C/I)cc1 | 372 nM
34 | C#CCN1[C@H]2CC[C@@H]1[C@@H](C(=O)OC)[C@@H](c1ccc(I)cc1)C2 | 14.1 nM
35 | O=C(OCCF)[C@H]1[C@@H](c2ccc(/C=C\I)cc2)C[C@@H]2CC[C@H]1N2 | 13.2 nM
36 | COC(=O)[C@H]1[C@@H](c2ccc(C)cc2)C[C@@H]2CC[C@H]1N2C | 32.4 nM
37 | COC(=O)[C@H]1[C@@H](c2ccc(C(C)C)cc2)C[C@@H]2CC[C@H]1N2C | 501 nM
38 | COC(=O)[C@H]1[C@@H](c2ccc(C(C)C)c(I)c2)C[C@@H]2CC[C@H]1N2C | 501 nM
39 | CN1[C@H]2CC[C@@H]1[C@@H](C(=O)OCCc1ccc(N=[N+]=[N-])c(I)c1)[C@@H](c1ccc(Cl)cc1)C2 | 14.1 nM
40 | COC(=O)[C@H]1[C@@H](c2ccccc2)C[C@@H]2CC[C@H]1N2C/C=C/I | 115 nM
41 | COC(=O)[C@H]1[C@@H](c2ccc(C)c(I)c2)C[C@@H]2CC[C@H]1N2C | 46.8 nM
42 | COC(=O)[C@H]1[C@@H](c2ccc(I)cc2)C[C@@H]2CC[C@H]1N2Cc1ccccc1C | 93.3 nM
43 | CCc1ccc([C@H]2C[C@@H]3CC[C@H]([C@H]2C(=O)OC)N3C)cc1 | 501 nM
44 | CCCc1ccc([C@H]2C[C@@H]3CC[C@@H](N3)[C@H]2C(=O)OC)cc1I | 501 nM
45 | COC(=O)[C@H]1[C@@H](c2ccc(C)cc2)C[C@@H]2CC[C@H]1N2C/C=C/I | 17 nM
46 | COC(=O)[C@H]1[C@@H](c2ccc(I)cc2)C[C@@H]2CC[C@H]1N2Cc1ccccc1 | 41.7 nM
47 | CCc1ccc([C@H]2C[C@@H]3CC[C@@H](N3)[C@H]2C(=O)OC)cc1I | 263 nM
48 | CC(C)OC(=O)[C@@H]1[C@@H](OC(c2ccc(F)cc2)c2ccc(F)cc2)C[C@H]2CC[C@@H]1N2C | 30.9 nM
49 | CCCc1ccc([C@H]2C[C@@H]3CC[C@H]([C@H]2C(=O)OC)N3C)cc1I | 501 nM

Species: Homo sapiens
Experiment: Selectivity ratio of compound Ki for human cloned NET receptor to Ki for human DAT receptor
Conditions: not given

Row | SMILES | Ratio Ki
50 | COC(=O)[C@H]1[C@@H](c2ccc(C)cc2)C[C@@H]2CC[C@H]1N2C/C(I)=C/C(F)(F)F | 216

Biological target: T1, Sodium-dependent dopamine transporter
Experiment: Ratio of LBT999 Ki to compound Ki for human cloned DAT receptor
Conditions: not given

Row | SMILES | Ratio Ki
51 | COC(=O)[C@H]1[C@@H](c2ccc(C)cc2)C[C@@H]2CC[C@H]1N2C/C(I)=C/C(F)(F)F | 10

System: not listed separately
Experiment: Lipophilicity, log D of the compound in octanol-water at pH 7.4 by reverse-phase HPLC analysis
Conditions: not given

Row | SMILES | logD
52 | O=[N+]([O-])c1cccc(O)c1 [3-NITRO-PHENOL] | 2
53 | COC(=O)[C@H]1[C@@H](c2ccc(C)cc2)C[C@@H]2CC[C@H]1N2C/C=C/CF | 4.1
54 | Nc1ccccc1 [ANILINE] | 0.9
55 | COC(=O)[C@H]1[C@@H](c2ccc(C)cc2)C[C@@H]2CC[C@H]1N2C/C=C(\I)C(F)(F)F | 5.3
56 | c1ccc(-c2ccccc2)cc1 [BIPHENYL] | 4.01
57 | ClCc1ccccc1 [(CHLOROMETHYL)BENZENE] | 2.3
58 | COC(=O)[C@H]1[C@@H](c2ccc(C)cc2)C[C@@H]2CC[C@H]1N2C/C(I)=C/C(F)(F)F | 5.5
59 | COC(=O)[C@H]1[C@@H](c2ccc(C)cc2)C[C@@H]2CC[C@H]1N2C/C=C/I | 4.9
60 | Oc1ccc2ccccc2c1 [BETANAPHTHOL] | 2.7

Biological target: Sodium-dependent serotonin transporter (Homo sapiens, UniProt P31645)
Sequence (P31645 whole entry): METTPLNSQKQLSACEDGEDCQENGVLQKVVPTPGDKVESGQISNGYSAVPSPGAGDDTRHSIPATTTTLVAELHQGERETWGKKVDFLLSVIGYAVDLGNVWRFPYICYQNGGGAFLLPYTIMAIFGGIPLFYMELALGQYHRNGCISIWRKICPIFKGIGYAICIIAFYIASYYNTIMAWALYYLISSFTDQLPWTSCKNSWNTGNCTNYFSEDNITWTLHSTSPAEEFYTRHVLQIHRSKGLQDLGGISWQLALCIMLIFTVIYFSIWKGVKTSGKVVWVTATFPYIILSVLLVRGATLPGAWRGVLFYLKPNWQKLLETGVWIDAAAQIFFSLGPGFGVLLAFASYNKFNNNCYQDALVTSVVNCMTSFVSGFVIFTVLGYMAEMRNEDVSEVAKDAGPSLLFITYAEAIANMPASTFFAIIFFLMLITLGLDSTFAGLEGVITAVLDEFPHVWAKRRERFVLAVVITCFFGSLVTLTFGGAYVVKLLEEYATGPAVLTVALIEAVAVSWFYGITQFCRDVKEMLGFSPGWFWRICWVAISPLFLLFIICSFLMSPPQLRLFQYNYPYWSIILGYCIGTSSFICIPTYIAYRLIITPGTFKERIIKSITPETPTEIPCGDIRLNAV
Experiment: Displacement of [3H]Citalopram from human cloned SERT receptor expressed in HEK293 cells
Format: cell-based
Conditions: not given

Row | SMILES | Ki
61 | COC(=O)[C@H]1[C@@H](c2ccc(C)cc2)C[C@@H]2CC[C@H]1N2C/C=C(\I)C(F)(F)F | 251 nM
62 | COC(=O)[C@H]1[C@@H](c2ccc(C)cc2)C[C@@H]2CC[C@H]1N2C/C(I)=C/C(F)(F)F | > 1000 nM

Species: Homo sapiens
Experiment: Selectivity ratio of compound Ki for human cloned SERT receptor to Ki for human DAT receptor
Conditions: not given

Row | SMILES | Ratio Ki
63 | COC(=O)[C@H]1[C@@H](c2ccc(C)cc2)C[C@@H]2CC[C@H]1N2C/C(I)=C/C(F)(F)F | 10000

Biological target: T2, Sodium-dependent dopamine transporter (Rattus norvegicus, UniProt P23977)
T2 sequence (P23977 whole entry): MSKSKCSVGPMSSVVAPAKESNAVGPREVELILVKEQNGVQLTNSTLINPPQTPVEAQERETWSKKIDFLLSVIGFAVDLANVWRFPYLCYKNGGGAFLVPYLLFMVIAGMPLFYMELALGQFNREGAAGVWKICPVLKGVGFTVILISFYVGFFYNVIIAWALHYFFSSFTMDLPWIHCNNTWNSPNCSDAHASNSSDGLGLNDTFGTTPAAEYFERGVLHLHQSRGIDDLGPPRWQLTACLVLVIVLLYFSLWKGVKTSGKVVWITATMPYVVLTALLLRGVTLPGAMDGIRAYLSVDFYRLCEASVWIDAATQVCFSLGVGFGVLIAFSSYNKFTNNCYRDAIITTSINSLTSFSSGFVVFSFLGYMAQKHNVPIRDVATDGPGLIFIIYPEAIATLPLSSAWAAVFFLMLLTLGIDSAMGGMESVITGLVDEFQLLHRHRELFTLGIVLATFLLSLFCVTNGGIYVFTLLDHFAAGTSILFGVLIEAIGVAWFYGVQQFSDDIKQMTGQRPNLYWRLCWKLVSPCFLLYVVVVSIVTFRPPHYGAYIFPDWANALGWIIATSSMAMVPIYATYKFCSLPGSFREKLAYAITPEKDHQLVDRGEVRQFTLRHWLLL
Experiment: Displacement of [3H]GBR-12935 from rat cloned striatal DAT receptor
Conditions: not given

Row | SMILES | IC50
64 | COC(=O)[C@H]1[C@@H](c2ccc(I)cc2)C[C@H]2N[C@@H]1C[C@H]2C | 2450 nM
65 | COC(=O)[C@H]1[C@@H](c2ccc(I)cc2)C[C@@H]2[C@H](C)C[C@H]1N2C | 794 nM

Biological target: Sodium-dependent noradrenaline transporter (Homo sapiens, UniProt P23975)
Sequence (P23975 whole entry): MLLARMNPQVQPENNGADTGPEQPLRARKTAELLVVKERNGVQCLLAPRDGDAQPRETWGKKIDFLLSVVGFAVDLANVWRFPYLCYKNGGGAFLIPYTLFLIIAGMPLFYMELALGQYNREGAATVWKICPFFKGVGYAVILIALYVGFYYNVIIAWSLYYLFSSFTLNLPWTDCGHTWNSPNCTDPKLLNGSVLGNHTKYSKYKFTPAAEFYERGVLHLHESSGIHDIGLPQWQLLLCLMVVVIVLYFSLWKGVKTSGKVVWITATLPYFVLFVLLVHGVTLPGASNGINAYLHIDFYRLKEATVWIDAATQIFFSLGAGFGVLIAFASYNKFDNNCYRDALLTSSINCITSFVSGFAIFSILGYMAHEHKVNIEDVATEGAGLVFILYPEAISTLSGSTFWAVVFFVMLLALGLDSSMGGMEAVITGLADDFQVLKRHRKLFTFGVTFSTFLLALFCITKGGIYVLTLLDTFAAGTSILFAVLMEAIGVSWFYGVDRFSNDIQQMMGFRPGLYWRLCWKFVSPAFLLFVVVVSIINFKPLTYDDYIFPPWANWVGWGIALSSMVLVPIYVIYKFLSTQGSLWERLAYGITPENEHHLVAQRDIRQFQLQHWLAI
Experiment: Displacement of [3H]nisoxetine from human cloned NET receptor expressed in HEK293 cells
Format: cell-based
Conditions: not given

Row | SMILES | Ki
66 | COC(=O)[C@H]1[C@@H](c2ccc(C)cc2)C[C@@H]2CC[C@H]1N2C/C=C(\I)C(F)(F)F | 426 nM
67 | COC(=O)[C@H]1[C@@H](c2ccc(C)cc2)C[C@@H]2CC[C@H]1N2C/C(I)=C/C(F)(F)F | 188 nM
68 | COC(=O)[C@H]1[C@@H](c2ccc(C)cc2)C[C@@H]2CC[C@H]1N2C/C=C/I | > 500 nM

Biological target: T2, Sodium-dependent dopamine transporter
Experiment: Displacement of [3H]WIN35428 from rat cloned striatal DAT receptor
Conditions: not given

Row | SMILES | pIC50 | IC50
69 | CCOc1ccc([C@H]2C[C@@H]3CC[C@H]([C@H]2C(=O)OC)N3C)cc1 | 7.04 | –
70 | COC(=O)C1C2CCC(CC1c1ccc(Cl)c(Cl)c1)O2 (stereo not given) | – | 9.77 nM
71 | Cc1ccc([C@H]2C[C@@H]3CC[C@H]([C@H]2C(=O)OC/C=C\I)N3C)cc1 | – | 39.8 nM
72 | Cc1ccc([C@H]2C[C@@H]3CC[C@H]([C@H]2C(=O)OC/C=C/I)N3C)cc1 | – | 191 nM
73 | COC(=O)[C@H]1[C@@H](c2ccccc2)C[C@@H]2CC[C@H]1N2CC#CCF | – | 3.02 nM
74 | COc1ccc([C@H]2C[C@@H]3CC[C@H]([C@H]2C(=O)OC(C)C)N3C)cc1 | 7.85 | –
75 | CCOC(=O)[C@H]1[C@@H](c2ccc(Cl)cc2)C[C@@H]2CC[C@H]1N2Cc1ccc(F)cc1 | – | 7.08 nM
76 | CCOC(=O)[C@H]1[C@@H](c2ccc(C)cc2)C[C@@H]2CC[C@H]1N2Cc1ccc(F)cc1 | – | 29.5 nM
77 | COC(=O)C1C2CCC(C2)CC1c1ccc(Cl)c(Cl)c1 (stereo not given) | – | 3.31 nM
78 | CN1[C@H]2CC[C@@H]1[C@@H](c1nc(-c3ccccc3)no1)[C@@H](c1ccc(Cl)cc1)C2 | – | 794 nM
79 | CN1[C@H]2CC[C@@H]1[C@@H](c1nnc(-c3ccccc3)o1)[C@@H](c1ccc(Cl)cc1)C2 | – | 2450 nM

Biological target: T1, Sodium-dependent dopamine transporter
Experiment: Ratio of PE2I Ki to compound Ki for human cloned DAT receptor
Conditions: not given

Row | SMILES | Ratio Ki
80 | COC(=O)[C@H]1[C@@H](c2ccc(C)cc2)C[C@@H]2CC[C@H]1N2C/C(I)=C/C(F)(F)F | 20
